Columns and labels:
panel of 442 kinases [1] = target: T1, panel of 442 kinases (Homo sapiens, UniProt P00519, Q252H); format: binding; settings: Compound Concentration 10 µM
T1 construct: purchased KINOMEscan
Text: (§1) We assessed the selectivity of members of this scaffold using the KINOMEscan methodology across a near comprehensive panel of 442 kinases [[18,27]].

panel of 442 kinases [2] = target: T2, panel of 442 kinases (Homo sapiens, UniProt Q8IVW4); format: binding; settings: Compound Concentration 10 µM
T2 construct: purchased KINOMEscan
Text: as §1

T2 sequence (Q8IVW4 whole entry): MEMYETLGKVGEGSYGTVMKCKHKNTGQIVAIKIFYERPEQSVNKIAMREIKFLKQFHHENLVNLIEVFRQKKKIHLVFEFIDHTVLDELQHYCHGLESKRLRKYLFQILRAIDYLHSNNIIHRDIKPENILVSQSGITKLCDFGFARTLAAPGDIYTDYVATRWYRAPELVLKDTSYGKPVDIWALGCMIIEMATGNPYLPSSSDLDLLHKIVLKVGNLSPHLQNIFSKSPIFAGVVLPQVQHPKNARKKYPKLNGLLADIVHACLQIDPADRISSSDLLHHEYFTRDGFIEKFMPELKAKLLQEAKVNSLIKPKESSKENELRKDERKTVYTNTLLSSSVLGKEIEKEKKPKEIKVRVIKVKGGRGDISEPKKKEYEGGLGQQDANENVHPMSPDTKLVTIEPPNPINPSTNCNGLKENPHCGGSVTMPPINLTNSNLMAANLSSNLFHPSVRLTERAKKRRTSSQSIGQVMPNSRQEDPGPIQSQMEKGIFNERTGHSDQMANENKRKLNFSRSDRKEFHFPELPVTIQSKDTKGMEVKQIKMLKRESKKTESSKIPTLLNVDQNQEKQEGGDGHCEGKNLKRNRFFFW

Row | Compound | KINOMEscan: ABL1(Q252H)-nonphosphorylated (panel of 442 kinases [1]) | KINOMEscan: ABL1(Q252H)-phosphorylated (panel of 442 kinases [1]) | KINOMEscan: CDKL3 (panel of 442 kinases [2])
1 | COc1cc(C(=O)N2CCC(N3CCN(C)CC3)CC2)ccc1Nc1ncc2c(n1)N(C)c1ccccc1C(=O)N2C [15 (LRRK2-IN-1)] | 100 | 100 | 83
2 | COc1cc(C(=O)N2CCC(N3CCN(C)CC3)CC2)ccc1Nc1ncc2c(n1)N1CCc3cccc(c31)C(=O)N2C [Compound 24] |  |  | 81
3 | COc1cc(C(=O)N2CCC(N3CCN(C)CC3)CC2)ccc1Nc1ncc2c(n1)N(C1CCCC1)c1ccccc1C(=O)N2C [Compound 25, 11-cyclopentyl-2-((2-methoxy-4-(4-(4-methylpiperazin-1-yl)piperidine-1-carbonyl)phenyl)amino)-5-methyl-5H-benzo[e]pyrimido[5,4-b][1,4]diazepin-6(11H)-one] | 89 | 83 | 73
4 | CCOc1cc(C(=O)N2CCC(N3CCN(C)CC3)CC2)ccc1Nc1ncc2c(n1)N(C1CCCC1)c1ccccc1C(=O)N2C [Compound 26] | 100 | 100 | 99
